# Experimental data as given in patent US10125129B2 (priority 2016, dated 2018).
# Molecular target: T1, μ opioid receptor (MOR) (Homo sapiens, UniProt P35372)
# T1 construct: expressed in transfected cells
# Assay: cell-based
# Format: cell-based
# Settings: Series 2 EC50
# T1 sequence (P35372 whole entry): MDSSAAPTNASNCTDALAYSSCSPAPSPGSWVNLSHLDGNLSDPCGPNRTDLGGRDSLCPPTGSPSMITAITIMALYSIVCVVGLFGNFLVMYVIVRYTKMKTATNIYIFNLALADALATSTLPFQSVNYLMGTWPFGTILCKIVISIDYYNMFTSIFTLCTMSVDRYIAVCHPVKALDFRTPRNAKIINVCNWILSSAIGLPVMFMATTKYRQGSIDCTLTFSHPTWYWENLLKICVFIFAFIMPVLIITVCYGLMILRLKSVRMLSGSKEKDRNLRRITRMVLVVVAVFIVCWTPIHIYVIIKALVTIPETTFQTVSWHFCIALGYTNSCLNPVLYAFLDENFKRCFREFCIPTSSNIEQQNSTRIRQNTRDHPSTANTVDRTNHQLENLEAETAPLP
row,SMILES,EC50 [µM]
1,"COC(=O)[C@@H]1C=C(OC(=O)c2ccccc2Cl)C(=O)[C@H]2[C@@]1(C)CC[C@H]1C(=O)O[C@H](c3ccoc3)C[C@]21C [Series 2 Entry 5, (2S,4aR,6aR,7R,10aR,10bR)-Methyl 9-((2-chlorobenzoyl)oxy)-2-(furan-3-yl)-6a,10b-dimethyl-4,10-dioxo-2,4,4a,5,6,6a,7,10,10a,10b-decahydro-1H-benzo[f]isochromene-7-carboxylate]",0.29 ± 0.02
2,"COC(=O)[C@@H]1C=C(OC(=O)c2cccc(Cl)c2)C(=O)[C@H]2[C@@]1(C)CC[C@H]1C(=O)O[C@H](c3ccoc3)C[C@]21C [Series 2 Entry 6, (2S,4aR,6aR,7R,10aR,10bR)-Methyl 9-((3-chlorobenzoyl)oxy)-2-(furan-3-yl)-6a,10b-dimethyl-4,10-dioxo-2,4,4a,5,6,6a,7,10,10a,10b-decahydro-1H-benzo[f]isochromene-7-carboxylate]",0.25 ± 0.03
3,"COC(=O)[C@@H]1C=C(OC(=O)c2ccc(Cl)cc2)C(=O)[C@H]2[C@@]1(C)CC[C@H]1C(=O)O[C@H](c3ccoc3)C[C@]21C [Series 2 Entry 7, (2S,4aR,6aR,7R,10aR,10bR)-Methyl 9-((4-chlorobenzoyl)oxy)-2-(furan-3-yl)-6a,10b-dimethyl-4,10-dioxo-2,4,4a,5,6,6a,7,10,10a,10b-decahydro-1H-benzo[f]isochromene-7-carboxylate]",0.029 ± 0.008
4,COC(=O)[C@@H]1C=C(OC(=O)c2ccccc2F)C(=O)[C@H]2[C@@]1(C)CC[C@H]1C(=O)O[C@H](c3ccoc3)C[C@]21C [Series 2 Entry 8],0.0047 ± 0.0004
5,"COC(=O)[C@@H]1C=C(OC(=O)c2cccc(F)c2)C(=O)[C@H]2[C@@]1(C)CC[C@H]1C(=O)O[C@H](c3ccoc3)C[C@]21C [Series 2 Entry 9, (2S,4aR,6aR,7R,10aR,10bR)-Methyl 9-((3-fluorobenzoyl)oxy)-2-(furan-3-yl)-6a,10b-dimethyl-4,10-dioxo-2,4,4a,5,6,6a,7,10,10a,10b-decahydro-1H-benzo[f]isochromene-7-carboxylate]",0.015 ± 0.002
6,"COC(=O)[C@@H]1C=C(OC(=O)c2ccc(F)cc2)C(=O)[C@H]2[C@@]1(C)CC[C@H]1C(=O)O[C@H](c3ccoc3)C[C@]21C [Series 2 Entry 10, (2S,4aR,6aR,7R,10aR,10bR)-Methyl 9-((4-fluorobenzoyl)oxy)-2-(furan-3-yl)-6a,10b-dimethyl-4,10-dioxo-2,4,4a,5,6,6a,7,10,10a,10b-decahydro-1H-benzo[f]isochromene-7-carboxylate]",0.005 ± 0.001
7,"COC(=O)[C@@H]1C=C(OC(=O)c2ccccc2C)C(=O)[C@H]2[C@@]1(C)CC[C@H]1C(=O)O[C@H](c3ccoc3)C[C@]21C [Series 2 Entry 11, (2S,4aR,6aR,7R,10aR,10bR)-Methyl 2-(furan-3-yl)-6a,10b-dimethyl-9-((2-methylbenzoyl)oxy)-4,10-dioxo-2,4,4a,5,6,6a,7,10,10a,10b-decahydro-1H-benzo[f]isochromene-7-carboxylate]",0.24 ± 0.04
8,"COC(=O)[C@@H]1C=C(OC(=O)c2cccc(C)c2)C(=O)[C@H]2[C@@]1(C)CC[C@H]1C(=O)O[C@H](c3ccoc3)C[C@]21C [Series 2 Entry 12, (2S,4aR,6aR,7R,10aR,10bR)-Methyl 2-(furan-3-yl)-6a,10b-dimethyl-9-((3-methylbenzoyl)oxy)-4,10-dioxo-2,4,4a,5,6,6a,7,10,10a,10b-decahydro-1H-benzo[f]isochromene-7-carboxylate]",0.16 ± 0.03

# Same assay, conditions: read-out: Series 2 EC50
row,SMILES,EC50 [µM]
1,"COC(=O)[C@@H]1C=C(OC(=O)c2ccc(C)cc2)C(=O)[C@H]2[C@@]1(C)CC[C@H]1C(=O)O[C@H](c3ccoc3)C[C@]21C [Series 2 Entry 13, (2S,4aR,6aR,7R,10aR,10bR)-Methyl 2-(furan-3-yl)-6a,10b-dimethyl-9-((4-methylbenzoyl)oxy)-4,10-dioxo-2,4,4a,5,6a,7,10,10a,10b-decahydro-1H-benzo[f]isochromene-7-carboxylate]",0.0218 ± 0.0003
